Experiments:
HeLa-GFP cells [1] = assay: Fluorescent microscopy cytotoxicity assay (LD50 determination, FIG. 2); assay type: cell-based, human; conditions: for approximate LD50 in HeLa-GFP: various concentrations, cell counts under fluorescent microscopy, FIG. 2
Description: The concentration of the test compounds (μM) are shown within the figure. Horizontal bar indicates the 50% toxicity range. H2O2 (+control, 1 mM) was used as a positive control (+; 100% cytolysis) while cells treated with DMSO (1 μl; solvent for all quinones) was used as the negative (−) control.
Fluorescent microscopy cytotoxicity assays. HeLa-GFP cells were plated on 24-well plates and left overnight to adhere. Different dilutions of the quinones were then added to each well (indicated in the legend) using the same concentrations of the positive and negative controls as described in the previous assay. Cell counts were done under fluorescent microscopy to determine cytotoxicity. The status of the fluorescent GFP-nuclei and the typical morphological characteristics of cells undergoing cell death were taken into account when differentiating between dying or viable cells as previously described (Montoya et al., 2004).

E. coli-GFP = assay: Toxicity assay with GFP-expressing E. coli; conditions: for Percent-GFP-fluorescence after incubation with test compounds, E. coli-GFP (20 μg/ml): 10 h incubation, relative to untreated bacteria; for toxicity to E. coli (in words): loss of GFP signal, Table 1 screen
Description: (§1) E. coli-GFP cells were grown in LB broth media while the MAC104 M. avium strain was grown in 7H9-ADC media.
(§2) Toxicity assays with GFP-expressing bacteria. E. coli was transformed with a GFP-expression plasmid that also confers tetracycline resistance was kindly provided by Dr. David Schneider (Elrod-Erickson et al., 2000). […] Both bacterial strains were grown and selected based on antibiotic resistance and GFP expression. All toxicity assays were performed using the plates and fluorometric parameters described in the previous section. Bacterial cell suspensions were seeded in a final volume of 100 μl at an optical density of 0.05 and 0.25 at 650 nm, for E. coli-GFP and M. avium-GFP, respectively. After exposure to the test compounds, assay plates were incubated at 37° C. in a humid environment to prevent dehydration in the wells. Unlike the HeLa-GFP assays, reading were performed without removing the supernatants to avoid loss of cells. Several untreated wells containing bacteria and media were used to determine the maximum level of fluorescence. Several wells containing media alone (no bacteria) were included in each assay to remove background fluorescence.
(§3) Data analysis. All compounds, including controls, were screened in triplicate. The average of the three wells that were used for the removal of the background fluorescence (wells containing water for the HeLa-GFP assays and wells containing media alone for bacteria) was subtracted from each individual well. The mean of these triplicate values for each compound was then obtained.

HeLa-GFP cells [2] = assay: HeLa-GFP fluorometric cytotoxicity assay; conditions: for Percent-GFP-fluorescence after incubation with test compounds, HeLa-GFP (2 μg/ml) / Percent-GFP-fluorescence after incubation with test compounds, HeLa-GFP (20 μg/ml): 18 h incubation, relative to untreated (DMSO) cells; for toxicity to HeLa-GFP cells (in words): loss of GFP signal, Table 1 screen
Description: Cell culture. HeLa-GFP cells were cultured in DMEM media supplemented with 10% heat-inactivated newborn calf serum as previously described (Montoya et al., 2004). Stock cultures were prewashed twice with PBS before the treatment of trypsin for cell resuspension and subsequently re-plated at the concentration of 4,000 cells/well.
HeLa-GFP fluorometric cytotoxicity assay. All cell lines were seeded in clear-bottomed 96-well assay plates (3603, Costar, Corning Inc., Corning, N.Y.) in order to minimized background fluorescence. HeLa cells were grown in a total volume of 0.2 ml of medium and incubated overnight for proper cell attachment. The quinone compounds were then added to each well (in triplicate) and then incubated for a period of 18 hr. For the determination of fluorescence, the assay plates were then read using the Fluoroskan Ascent F1 fluorometer (Thermo Electron Corp.) set at the excitation and emission parameters of 485 and 518 nm, respectively. Since the HeLa-GFP cell line is adherent, the fluorometer was set to read from the bottom of the plate for closer proximity to the cells. Before the readings were performed, all supernatant media was removed to avoid any background interference and thus enhancing the sensitivity of the optical readings. For calibration purposes, three untreated control wells were used to determine the maximum level of fluorescence (100%). […] As a cytolysis control (complete loss of fluorescence), three wells containing cells were exposed to 0.2 ml of deionized water. These controls were then used to calculate the percent loss of GFP signal after compound exposure as determined by comparison with control wells containing cells that were not exposed to the chemical agent (see data analysis below).
Data analysis. All compounds, including controls, were screened in triplicate. The average of the three wells that were used for the removal of the background fluorescence (wells containing water for the HeLa-GFP assays and wells containing media alone for bacteria) was subtracted from each individual well. The mean of these triplicate values for each compound was then obtained. These mean values were then divided by the average obtained for maximum fluorescence (cells not treated with compound) and then multiplied by 100 to obtain the percentage values as shown in Table 1.

[3] = test system: M. avium-GFP (strain MAC104); assay: Toxicity assay with GFP-expressing M. avium; conditions: for Percent-GFP-fluorescence after incubation with test compounds, M. avium-GFP (20 μg/ml): 18 h incubation, relative to untreated bacteria; for toxicity to M. avium (in words): loss of GFP signal, Table 1 screen
Description: as §1, §2, §3

Compound | approximate LD50 in HeLa-GFP (HeLa-GFP cells [1]) [µM] | Percent-GFP-fluorescence after incubation with test compounds, E. coli-GFP (20 μg/ml) (E. coli-GFP) [%] | toxicity to E. coli (in words) (E. coli-GFP) | Percent-GFP-fluorescence after incubation with test compounds, HeLa-GFP (2 μg/ml) (HeLa-GFP cells [2]) [%] | Percent-GFP-fluorescence after incubation with test compounds, HeLa-GFP (20 μg/ml) (HeLa-GFP cells [2]) [%] | toxicity to HeLa-GFP cells (in words) (HeLa-GFP cells [2]) | Percent-GFP-fluorescence after incubation with test compounds, M. avium-GFP (20 μg/ml) [3] [%] | toxicity to M. avium (in words) [3] | cytolysis (positive control) (HeLa-GFP cells [1]; 1 mM, HeLa-GFP) [%] | toxicity to E. coli (in words) (E. coli-GFP; listed as Plumbagin) | toxicity to HeLa-GFP cells (in words) (HeLa-GFP cells [2]; listed as Plumbagin) | toxicity to M. avium (in words) ([3]; listed as Plumbagin)
O=C1C=CC(=O)c2c(O)ccc(O)c21 [Compound Q3, naphthazarin, reference compound] | ~3.0 | 41.0 | highly toxic | 0 | 4.0 | highly toxic | 38.0 | highly toxic |  |  |  | 
OO [Compound H2O2, H2O2] |  |  |  |  |  |  |  |  | 100 |  |  | 
COC(=O)c1ccccc1C1=C(CNC(=O)OC(C)(C)C)C(=O)c2ccccc2C1=O [Compound Q32] |  | 99.0 |  | 88.0 | 57.0 |  | 80.0 |  |  |  |  | 
CCOC(=O)c1cccc(C2=C(CN(C(=O)OC(C)(C)C)C(=O)OC(C)(C)C)C(=O)c3ccccc3C2=O)c1 [Compound Q37] |  | 105.0 |  | 90.0 | 62.0 |  | 92.0 |  |  |  |  | 
COC(=O)c1ccccc1C1=C(CN(C(=O)OC(C)(C)C)C(=O)OC(C)(C)C)C(=O)c2ccccc2C1=O [Compound Q33] |  | 102.0 |  | 88.0 | 62.0 |  | 74.0 |  |  |  |  | 
CC1=CC(=O)c2c(O)cccc2C1=O [Compound Q1, plumbagin, reference compound] | ~3.0 | 1.0 | most toxic | 13.0 | 9.0 | most toxic | 7.0 | most toxic |  | most toxic compound to E. coli | third-most toxic to HeLa cells | most toxic to M. avium
CCOC(=O)c1ccc(C2=C(CN(C(=O)OC(C)(C)C)C(=O)OC(C)(C)C)C(=O)c3ccccc3C2=O)cc1 [Compound Q39] |  | 108.0 |  | 88.0 | 62.0 |  | 96.0 |  |  |  |  | 
CCCC1=C(CCC)C(=O)c2c(OC)cccc2C1=O [Compound Q19] |  | 99.0 |  | 78.0 | 38.0 |  | 73.0 |  |  |  |  | 
O=C1C(c2ccccc2)=C(c2ccccc2)C(=O)c2ccccc21 [Compound Q6] |  | 105.0 |  | 78.0 | 20.0 |  | 55.0 |  |  |  |  | 
CCCCC12OC1(c1ccccc1)C(=O)c1ccccc1C2=O (centres unmarked) [Compound Q22] |  | 110.0 |  | 75.0 | 14.0 |  | 91.0 |  |  |  |  | 
CCCCCC1=C(C)C(=O)c2ccccc2C1=O [Compound Q9] |  | 115.0 |  | 90.0 | 31.0 |  | 85.0 |  |  |  |  | 
CCOC(=O)c1ccccc1C1=C(CNC(=O)OC(C)(C)C)C(=O)c2ccccc2C1=O [Compound Q34] |  | 87.0 |  | 86.0 | 49.0 |  | 64.0 |  |  |  |  | 
CCOC(=O)c1cccc(C2=C(CNC(=O)OC(C)(C)C)C(=O)c3ccccc3C2=O)c1 [Compound Q36] |  | 100.0 |  | 89.0 | 59.0 |  | 93.0 |  |  |  |  | 
O=C1C=CC(=O)c2c(O)cccc21 [Compound Q2] |  | 111.0 |  | 14.0 | 29.0 |  | 72.0 |  |  |  |  | 
O=C1C=C(CCCO)C(=O)c2ccccc21 [Compound Q14] |  | 90.0 |  | 83.0 | 29.0 |  | 58.0 |  |  |  |  | 

— patent publication US20080020421A1, “METHODS OF SCREENING AGENTS FOR CYTOTOXIC AND ANTIMICROBIAL ACTIVITY” (priority 2006, published 2008)
